What is called ED50 is the midpoint of the dose-response relation. Higher therefore signals a need for a large dose.

The subject of one experiment is Dopamine receptor. Put plainly: Ability to inhibit the binding of [3H]spiroperidol in rat striatal tissue; ND=assay not performed due to solubility problems.
Settings: not given
The class given is tissue-based, Striatum.
Take `Oc1nc2ccccc2n1CCCN1CCC(c2noc3ccccc23)CC1`: the IC50 result is reported as “Insoluble”.

The species named for a further experiment is Mus musculus. The experiment in a line: animal or person. The note with it: ip.
Description: Neuroleptic activity in vivo by ability to antagonise climbing in apomorphine dosed mice after intraperitoneal administration.
In turn, `COc1ccc2c(C3CCN(CCCn4c(O)nc5ccccc54)CC3)noc2c1` gave a median effective dose (ED50) of over 10 mg/kg.

`Fc1ccc(C(CCCN2CCC(c3noc4ccccc34)CC2)c2ccc(F)cc2)cc1`: the 50% effect level (ED50) was put at a dose of 1.6 mg/kg.

Consider `Oc1ccc2onc(C3CCN(CCCC(c4ccc(F)cc4)c4ccc(F)cc4)CC3)c2c1`, for which the ED50 is over 10 mg/kg.

In turn, `COc1cc2onc(C3CCN(CCCn4c(O)nc5ccccc54)CC3)c2cc1OC` displayed an ED50 of over 10 mg/kg.

For the molecule `Oc1nc2ccccc2n1CCCN1CCC(c2noc3cc(F)ccc23)CC1`, the 50% effect level (ED50) was put at a dose of 0.09 mg/kg.

The molecule `Fc1ccc(C(CCCN2CCC(c3noc4ccc(F)cc34)CC2)c2ccc(F)cc2)cc1` had an ED50 of 1.6 mg/kg.

The molecule `COc1cc2onc(C3CCN(CCCc4c(C)[nH]c5ccccc45)CC3)c2cc1OC` showed an ED50 of over 10 mg/kg.

Consider `Cc1[nH]c2ccccc2c1CCCN1CCC(c2noc3ccc(O)cc23)CC1`, for which the 50% effective dose (ED50) is over 10 mg/kg.

In turn, `Oc1nc2ccccc2n1CCCN1CCC(c2noc3cc(Cl)ccc23)CC1` registered an ED50 of 0.8 mg/kg.

Turning to `Cc1[nH]c2ccccc2c1CCCN1CCC(c2noc3cc(Cl)ccc23)CC1`, the 50% effect level (ED50) was put at a dose of 4.1 mg/kg.

With `Cc1[nH]c2ccccc2c1CCCN1CCC(c2noc3ccccc23)CC1`, the 50% effect level (ED50) was put at a dose of 1.1 mg/kg. This ED50 is about 3.7-fold lower than that of the molecule before.

On to `COc1cc2onc(C3CCN(CCCc4noc5cc(F)ccc45)CC3)c2cc1OC`, for which the ED50 is over 10 mg/kg.

In turn, `Oc1nc2ccccc2n1CCCN1CCC(c2noc3cccc(F)c23)CC1` displayed an ED50 of 5.3 mg/kg.

In the case of `Fc1ccc2c(CCCN3CCC(c4noc5ccccc45)CC3)noc2c1`, the ED50 was found to be 1.4 mg/kg.

Molecule `Cc1[nH]c2ccccc2c1CCCN1CCC(c2noc3ccc(F)cc23)CC1` registered an ED50 of over 10 mg/kg.

Molecule `COc1ccc2onc(C3CCN(CCCc4c(C)[nH]c5ccccc45)CC3)c2c1` registered an ED50 of over 10 mg/kg.

As to `Fc1ccc2c(CCCN3CCC(c4noc5cc(F)ccc45)CC3)noc2c1`, the 50% effect level (ED50) was put at a dose of 0.08 mg/kg.

For `O=C(c1ccccc1)C1CCNCC1`, the 50% effect level (ED50) was put at a dose of 1.3 mg/kg.

Consider `Oc1nc2ccccc2n1CCCN1CCC(c2noc3ccc(F)cc23)CC1`, for which the ED50 was over 10 mg/kg.

`Fc1ccc2c(CCCN3CCC(c4noc5cc(Cl)ccc45)CC3)noc2c1`: the ED50 was found to be 2 mg/kg.

As to `COc1ccc2onc(C3CCN(CCCC(c4ccc(F)cc4)c4ccc(F)cc4)CC3)c2c1`, the ED50 was over 10 mg/kg.

Regarding `COc1ccc2onc(C3CCN(CCCc4noc5cc(F)ccc45)CC3)c2c1`, the ED50 was found to be 7.2 mg/kg.

For `COc1cc2onc(C3CCN(CCCC(c4ccc(F)cc4)c4ccc(F)cc4)CC3)c2cc1OC`, the ED50 is over 10 mg/kg.
